Results published in patent publication US7901681B2, “Trypanosome derived apoptotic factors (TAF)” (priority 2003, dated 2011).

Assays:
mouse cerebellum = experiment: Mouse cerebellum apoptosis analysis (TUNEL of brain sections); type: in vivo, Balb/c mice; settings: similar to that induced by T. brucei
Experimental: Murine African trypanosomiasis model. All animal-related procedures were carried out in strict accordance with the National Institutes of Health Guide for the Care and Use of Laboratory Animals and approved by the Morehouse School of Medicine's Animal Care and Use Committee. Male Balb/c mice (6-8 weeks of age) were maintained on a 12-hour-light/12-hour-dark cycle with access to food and water ad libitum. Mice were injected intra-peritoneally with parasitized blood (T. brucei L427) and groups of 10 were then sacrificed on days 0, 4, 6 and 8 post-infection (P.I.). Equal numbers of mice were sham-injected (with uninfected blood) as controls. All experiments were repeated twice at different times to ensure that the data were representative of each group, and took into account the potential individual-host variation in trypanosome-induced global gene expression. This murine trypanosomiasis model mimics the major clinical symptoms of HAT, with the infected mice developing fever, tremors, lethargy, weight loss, dyskinesia, convulsions, altered gait, and death by day 10 post injection (P.I.).
Mouse cerebellum and apoptosis analysis. […] The level of apoptosis visible in brain sections was determined semi-quantitatively as the mean numbers of TUNEL-positive (i.e. apoptotic) cells/cm^2 in 20 comparative fields of brain sections from infected and uninfected mice.

HBVEC = experiment: TUNEL assay, dose response of apoptosis in HBVEC; type: cell-based, human
Experimental: RBVEC Cell line: Human Brain Macrovascular Endothelial Cells (HBVEC) were obtained from Biowhittaker (Walkersville, Md.). They were grown in media made as per the instructions in the Complete Medium Kit (Cell Systems Corporation, Kirkland, Wash.). Briefly, 500 ml of Complete Medium was added to 10 ml of Attachment Factor (Cell Systems Corporation, Kirkland, Wash.). The medium is a liquid medium containing 10% serum and CSC Growth factor. Cell stocks were maintained in T25 flasks at 37° C. in a 5% CO2 incubator, and were harvested and passed at about 60-80% confluence. Experiments were performed on cells plated and grown for 24 to 48 hours on collagen-coated coverslips in 35 mm tissue culture dishes.
Terminal deoxynucleotidyl transferase dUTP nick-end labeling (TUNEL) assay. […] Cells on cover slips were washed with PBS, and fixed for 30 minutes at RT with 4% paraformaldehyde, in PBS, pH 7.4. […] Total cell counts were determined by counterstaining fixed cultures with 20:g/ml of Hoechst 33258. […]
Dose Response. The effect of Trypanosome conditioned serum containing medium-induced apoptosis was determined in HBVEC. […] Total cells, and fluorescent cells were counted for each field examined (10 fields per plate minimum). The percentage of TUNEL-labeled cells was calculated as the number of FITC-stained cells divided by the total number.of cells. […]

AEGPEDKGLTKGGKGKGEKETKVQDEV (listed as Trypanosoma brucei) [ProEP2-1]
induction of apoptosis in cerebella of mice (mouse cerebellum): induce apoptosis
induction of apoptosis in HBVEC (HBVEC): induce apoptosis
dose dependence of TUNEL labeling of HBVEC (HBVEC; 24 hours): dose dependent
